Read-outs that look alike come from different tables or passages of the source.
Tests used:
[1] = in vitro; conditions: African green monkey
[2] = system: SARS-CoV-2; test: microbe, parasite or virus in culture; format: cell-based; conditions: for Inhibition of SARS-CoV-2 replication at single concentration: 50 µM, initial screening; for Inhibition of SARS-CoV-2 replication at single concentration / EC50: Vero cells; for SI: CC50/EC50, Vero cells, SARS-CoV-2; for EC50: Severe acute respiratory syndrome coronavirus 2, MOI 0.1, 48 h, 50% reduction in viral titers, read-out: EC50 (µM) (95% CI)
[3] = in vitro; conditions: cat (Felis catus)
[4] = system: SARS-CoV-2; test: microbe, parasite or virus in culture; format: cell-based; conditions: for SI: CC50/EC50, CaCo-2 cells, SARS-CoV-2; for EC50: Severe acute respiratory syndrome coronavirus 2, CaCo-2 cells, MOI 0.1, 48 h, 50% reduction in viral titers, read-out: EC50 (µM) (95% CI)
[5] = system: FIPV; test: Viral titer reduction assay, FIPV in CRFK cells (plaque assay readout); format: cell-based, feline infectious peritonitis virus; conditions: for Inhibition of FIPV replication at single concentration: 50 µM, initial screening; for Inhibition of FIPV replication at single concentration / EC50 / Anti-FIPV activity lower compared with remdesivir: CRFK cells; for SI: CC50/EC50, CRFK cells; for SI / EC50: FIPV; for EC50: MOI 0.1, 48 h, 50% reduction in viral titers, read-out: EC50 (µM) (95% CI); for Anti-FIPV activity lower compared with remdesivir: relative to remdesivir EC50
[6] = in vitro; conditions: human
[7] = target: SARS-CoV-2 RdRp (Severe acute respiratory syndrome coronavirus 2, UniProt P0DTD1); test: biochemical; format: biochemical; conditions: for Inhibition of SARS-CoV-2 RdRp at one concentration: in vitro RdRp assay, 100 µM
[8] = system: CaCo-2 cells; conditions: 50 µM
[9] = system: Vero cells; conditions: 50 µM
[10] = Cytotoxicity (Cell Counting Kit-8, WST-8) in CRFK cells; conditions: cat (Felis catus)
[11] = Cytotoxicity (Cell Counting Kit-8, WST-8) in Vero cells; conditions: African green monkey
[12] = Cytotoxicity (Cell Counting Kit-8, WST-8) in CaCo-2 cells; conditions: human
[13] = radioactive primer extension assay, n = 3, ± standard error of the mean, read-out: IC50

**Q.** With O=C(N[C@@H](Cc1ccc(O)cc1)C(=O)O)c1cc(-c2ccccc2)c(=O)n2c1sc1ccc(OC3CCCCC3)cc12 [Compound 16, reference compound] as the compound, how does the CC50 at 48 h [1] read?
**A.** The CC50 at 48 h was greater than 50 µM.

**Q.** What about the “Inhibition of SARS-CoV-2 replication at single concentration” value (from here on “Inhibition of SARS-CoV-2 replication”) [2] of the same compound?
**A.** The value was “completely inhibit”.

**Q.** And the SI [2]?
**A.** The SI was greater than 76.5.

**Q.** What about the SI ([2]; listed as HeE1-2Tyr (16)) of the same compound?
**A.** Its SI is greater than 70.

**Q.** And the EC50 [2]?
**A.** Its EC50 is 0.653 µM.

**Q.** What about the CC50 at 48 h [3] of the same compound?
**A.** The CC50 at 48 h was greater than 50 µM.

**Q.** And the SI [4]?
**A.** Its SI is greater than 52.7.

**Q.** What about the SI ([4]; listed as HeE1-2Tyr (16)) of the same compound?
**A.** Its SI is greater than 50.

**Q.** What about the EC50 [4] of the same compound?
**A.** The EC50 was 0.949 µM.

**Q.** What about the “Inhibition of FIPV replication at single concentration” value (“Inhibition of FIPV replication” for short) [5] of the same compound?
**A.** Its value is “completely inhibit”.

**Q.** What about the SI [5] of the same compound?
**A.** Its SI is greater than 47.1.

**Q.** What about the SI ([5]; listed as HeE1-2Tyr (16)) of the same compound?
**A.** The SI was “exceeding 40”.

**Q.** What about the EC50 [5] of the same compound?
**A.** The EC50 was 1.06 µM.

**Q.** And the “Anti-FIPV activity lower compared with remdesivir” value [5]?
**A.** The value was “approx. 5 fold”.

**Q.** What about the CC50 at 48 h [6] of the same compound?
**A.** Its CC50 at 48 h is greater than 50 µM.

**Q.** What about the IC50 [7] of the same compound?
**A.** Its IC50 is 27.6 ± 2.1 µM.

**Q.** And the “Inhibition of SARS-CoV-2 RdRp at one concentration” value (shortened to “Inhibition of SARS-CoV-2 RdRp”) [7]?
**A.** The value was “inhibit”.

**Q.** For O=C(N[C@@H](Cc1ccccc1)C(=O)O)c1cc(-c2ccccc2)c(=O)n2c1sc1ccc(OC3CCCCC3)cc12 [Compound 17], which Cell viability [8] is on record?
**A.** Its Cell viability is “approx. 125 % of untreated cells”.

**Q.** And the CC50 at 48 h [1]?
**A.** The CC50 at 48 h was greater than 50 µM.

**Q.** And the “Inhibition of SARS-CoV-2 replication” value [2]?
**A.** Its value is “completely inhibit”.

**Q.** And the SI [2]?
**A.** Its SI is greater than 94.8.

**Q.** What about the EC50 [2] of the same compound?
**A.** Its EC50 is 0.527 µM.

**Q.** And the CC50 at 48 h [3]?
**A.** Its CC50 at 48 h is greater than 50 µM.

**Q.** And the viability at 48 h, 50 µM [3]?
**A.** Its viability at 48 h, 50 µM is roughly 60%.

**Q.** And the SI [4]?
**A.** The SI was greater than 50.2.

**Q.** And the EC50 [4]?
**A.** Its EC50 is 0.996 µM.

**Q.** And the “Inhibition of FIPV replication” value [5]?
**A.** The value was “completely inhibit”.

**Q.** And the EC50 [5]?
**A.** Its EC50 is 0.999 µM.

**Q.** And the “Anti-FIPV activity lower compared with remdesivir” value [5]?
**A.** Its value is “approx. 5 fold”.

**Q.** What about the CC50 at 48 h [6] of the same compound?
**A.** The CC50 at 48 h was greater than 50 µM.

**Q.** And the “Inhibition of SARS-CoV-2 RdRp” value [7]?
**A.** The value was “inhibit”.

**Q.** What about the IC50 [7, 13] of the same compound?
**A.** The IC50 was 41.2 ± 1.7 µM.

**Q.** And the Cell viability [9]?
**A.** Its Cell viability is “approx. 125 % of untreated cells”.

**Q.** With O=C(N[C@@H](Cc1ccc(O)cc1)C(=O)O)c1ccc(=O)n2c1sc1ccc(OC3CCCCC3)cc12 [Compound 18] as the compound, how does the CC50 at 48 h [1] read?
**A.** The CC50 at 48 h was greater than 50 µM.

**Q.** And the “Inhibition of SARS-CoV-2 replication” value [2]?
**A.** Its value is “inactive”.

**Q.** And the SI [2]?
**A.** Its SI is greater than 1.

**Q.** And the EC50 [2]?
**A.** The EC50 was greater than 50 µM.

**Q.** And the CC50 at 48 h [3]?
**A.** Its CC50 at 48 h is greater than 50 µM.

**Q.** And the SI [4]?
**A.** The SI was greater than 2.

**Q.** And the EC50 [4]?
**A.** Its EC50 is greater than 25 µM.

**Q.** What about the “Inhibition of FIPV replication” value [5] of the same compound?
**A.** Its value is “inactive”.

**Q.** What about the SI [5] of the same compound?
**A.** The SI was greater than 1.

**Q.** And the CC50 at 48 h [6]?
**A.** The CC50 at 48 h was greater than 50 µM.

**Q.** And the “Inhibition of SARS-CoV-2 RdRp” value [7]?
**A.** The value was “inhibit”.

**Q.** What about the IC50 [7, 13] of the same compound?
**A.** The IC50 was 85.5 ± 2 µM.

**Q.** Which CC50 at 48 h [10] does the source give for CCC(CC)COC(=O)[C@H](C)N[P@](=O)(OC[C@H]1O[C@@](C#N)(c2ccc3c(N)ncnn23)[C@H](O)[C@@H]1O)Oc1ccccc1 [Remdesivir] here?
**A.** The CC50 at 48 h was greater than 50 µM.

**Q.** And the SI [2]?
**A.** The SI was greater than 55.5.

**Q.** And the EC50 [2]?
**A.** The EC50 was 0.901 µM.

**Q.** What about the CC50 at 48 h [11] of the same compound?
**A.** The CC50 at 48 h was greater than 50 µM.

**Q.** What about the EC50 [4] of the same compound?
**A.** The EC50 was less than 0.3 µM.

**Q.** And the SI [5]?
**A.** The SI was greater than 224.2.

**Q.** And the CC50 at 48 h [12]?
**A.** Its CC50 at 48 h is greater than 50 µM.
